Reference: PubChem BioAssay AID274 (DTP/NCI, 2004)
“And” between values parts separate entries of the source, which are not always exact repeats. Equal entries are not always repeated. Inconclusive results and toxic doses are left out.

System: BDF1 mice, Lewis lung carcinoma iv, survival T/C
Experiment: NCI In Vivo Anticancer Drug Screen. Data for tumor model Lewis Lung Carcinoma (intravenous) in B6D2F1 (BDF1) mice
Conditions: endpoint: median survival time, higher = longer survival
Procedure: The antitumor activity of compounds was measured in mice bearing transplantable tumors. Survival or tumor size were measured and the results are expressed as the measurement made in the treated group (T) divided by the measurement made in the vehicle treated control group (C). The tumor model used in this assay is Lewis Lung Carcinoma (intravenous) in B6D2F1 (BDF1) mice

[1] = dose: 12.5 mg/kg/injection, schedule: Q01DX009 (ip), vehicle: saline
[2] = dose: 25.0 mg/kg/injection, schedule: Q01DX009 (ip), vehicle: saline
[3] = dose: 50.0 mg/kg/injection, schedule: Q01DX009 (ip), vehicle: saline
[4] = dose: 6.25 mg/kg/injection, schedule: Q01DX009 (ip), vehicle: saline
[5] = dose: 12.5 mg/kg/injection, schedule: Q01DX009 (ip), vehicle: saline with Tween-80
[6] = dose: 25.0 mg/kg/injection, schedule: Q01DX009 (ip), vehicle: saline with Tween-80
[7] = dose: 50.0 mg/kg/injection, schedule: Q01DX009 (ip), vehicle: saline with Tween-80
[8] = dose: 100.0 mg/kg/injection, schedule: Q01DX009 (ip), vehicle: saline with Tween-80
[9] = dose: 200.0 mg/kg/injection, schedule: Q01DX009 (ip), vehicle: saline with Tween-80
[10] = dose: 400.0 mg/kg/injection, schedule: Q01DX009 (ip), vehicle: saline with Tween-80
[11] = dose: 50.0 mg/kg/injection, schedule: Q01DX009 (ip), vehicle: Klucel (hydroxypropylcellulose) (HPC)
[12] = dose: 100.0 mg/kg/injection, schedule: Q01DX009 (ip), vehicle: Klucel (hydroxypropylcellulose) (HPC)
[13] = dose: 100.0 mg/kg/injection, schedule: Q01DX009 (ip), vehicle: saline

O=C1C2CC(Cl)C(SSC3CC4C(=O)N(SC(Cl)(Cl)C(Cl)Cl)C(=O)C4CC3Cl)CC2C(=O)N1SC(Cl)(Cl)C(Cl)Cl (configuration not stated)
T/C (dose: 6.0 mg/kg/injection, schedule: Q01DX009 (ip), vehicle: Klucel (hydroxypropylcellulose) (HPC)): 104 % of control | T/C (dose: 12.0 mg/kg/injection, schedule: Q01DX009 (ip), vehicle: Klucel (hydroxypropylcellulose) (HPC)): 103 % of control | T/C (dose: 24.0 mg/kg/injection, schedule: Q01DX009 (ip), vehicle: Klucel (hydroxypropylcellulose) (HPC)): 89 % of control | T/C (dose: 48.0 mg/kg/injection, schedule: Q01DX009 (ip), vehicle: Klucel (hydroxypropylcellulose) (HPC)): 93 % of control | T/C (dose: 96.0 mg/kg/injection, schedule: Q01DX009 (ip), vehicle: Klucel (hydroxypropylcellulose) (HPC)): 95 % of control

CCCCCc1cc(/C=C2/N=C(c3ccc[nH]3)C=C2OC)[nH]c1C
T/C (dose: 0.25 mg/kg/injection, schedule: Q01DX009 (ip), vehicle: suspension in saline): 94 % of control | T/C (dose: 0.5 mg/kg/injection, schedule: Q01DX009 (ip), vehicle: suspension in saline): 100 % of control | T/C (dose: 1.0 mg/kg/injection, schedule: Q01DX009 (ip), vehicle: suspension in saline): 103 % of control | T/C (dose: 2.0 mg/kg/injection, schedule: Q01DX009 (ip), vehicle: suspension in saline): 103 % of control | T/C (dose: 4.0 mg/kg/injection, schedule: Q01DX009 (ip), vehicle: suspension in saline): 106 % of control | T/C (dose: 8.0 mg/kg/injection, schedule: Q01DX009 (ip), vehicle: suspension in saline): 109 % of control

CCCNc1ncnc2c1cnn2C
T/C [1]: 100 % of control | T/C [2]: 105 % of control | T/C [3]: 109 % of control

C[C@@]12C(=O)OC(=O)[C@]1(C)[C@H]1CC[C@@H]2O1
T/C (dose: 0.06 mg/kg/injection, schedule: Q01DX009 (ip), vehicle: Klucel (hydroxypropylcellulose) (HPC)): 104 % of control | T/C (dose: 0.12 mg/kg/injection, schedule: Q01DX009 (ip), vehicle: Klucel (hydroxypropylcellulose) (HPC)): 108 % of control | T/C (dose: 0.25 mg/kg/injection, schedule: Q01DX009 (ip), vehicle: Klucel (hydroxypropylcellulose) (HPC)): 95 % of control | T/C (dose: 0.5 mg/kg/injection, schedule: Q01DX009 (ip), vehicle: Klucel (hydroxypropylcellulose) (HPC)): 108 % of control | T/C (dose: 1.0 mg/kg/injection, schedule: Q01DX009 (ip), vehicle: Klucel (hydroxypropylcellulose) (HPC)): 97 % of control

Nc1ccn(C2OC(CO)C(O)C2O)c(=O)n1 (configuration not stated)
T/C [4]: 98 % of control | T/C (dose: 30.0 mg/kg/injection, schedule: Q01DX006 (ip), vehicle: saline): 281 % of control | T/C (dose: 60.0 mg/kg/injection, schedule: Q01DX009 (ip), vehicle: saline): 234 % of control | T/C (dose: 980.0 mg/kg/injection, schedule: Q04DX003 (ip), vehicle: saline): 121 % of control | T/C (dose: 2000.0 mg/kg/injection, schedule: Q04DX003 (ip), vehicle: saline): 93 % of control

CC(=O)OCC1OC(n2cnc3c(=S)nc[nH]c32)C(OC(C)=O)C1OC(C)=O (configuration not stated)
T/C (dose: 50.0 mg/kg/injection, schedule: Q01DX009 (ip), vehicle: suspension in saline): 100 % of control

COc1ccc(OC)c(/C=C/c2ccnc3ccccc23)c1
T/C [5]: 94 % of control and 100 % of control | T/C [6]: 104 % of control and 117 % of control | T/C [7]: 94 % of control and 112 % of control | T/C [8]: 102 % of control and 109 % of control | T/C [9]: 101 % of control and 109 % of control | T/C [10]: 104 % of control and 119 % of control

CCN(C)N=Nc1ccc(C(N)=O)cc1
T/C (dose: 6.25 mg/kg/injection, schedule: Q01DX009 (ip), vehicle: Klucel (hydroxypropylcellulose) (HPC)): 104 % of control | T/C (dose: 12.5 mg/kg/injection, schedule: Q01DX009 (ip), vehicle: Klucel (hydroxypropylcellulose) (HPC)): 102 % of control | T/C (dose: 25.0 mg/kg/injection, schedule: Q01DX009 (ip), vehicle: Klucel (hydroxypropylcellulose) (HPC)): 109 % of control | T/C [11]: 122 % of control | T/C [12]: 87 % of control

O=C1NC(O)c2ccccc2O1 (configuration not stated)
T/C [5]: 108 % of control | T/C [6]: 103 % of control | T/C [7]: 105 % of control | T/C [8]: 101 % of control | T/C [9]: 112 % of control | T/C [10]: 102 % of control

COc1cccc2c1C(=O)c1c(O)c3c(c(O)c1C2=O)CC(O)(/C(C)=N/NC(=O)CCC(=O)N/N=C(\C)C1(O)Cc2c(O)c4c(c(O)c2C(OC2CC(N)C(O)C(C)O2)C1)C(=O)c1c(OC)cccc1C4=O)CC3OC1CC(N)C(O)C(C)O1 (configuration not stated)
T/C (dose: 1.5 mg/kg/injection, schedule: Q01DX009 (ip), vehicle: water): 96 % of control | T/C (dose: 3.0 mg/kg/injection, schedule: Q01DX009 (ip), vehicle: water): 108 % of control | T/C (dose: 6.0 mg/kg/injection, schedule: Q01DX009 (ip), vehicle: water): 101 % of control | T/C (dose: 12.0 mg/kg/injection, schedule: Q01DX009 (ip), vehicle: water): 123 % of control

COC(=O)c1cc2cc3c(c(O)c2c(=O)o1)OC1(Cc2c(O)c4c(c(O)c2O1)C(=O)C(OC)CC4=O)CC3O (configuration not stated)
T/C (dose: 3.13 mg/kg/injection, schedule: Q01DX009 (ip), vehicle: saline with Tween-80): 102 % of control | T/C (dose: 6.25 mg/kg/injection, schedule: Q01DX009 (ip), vehicle: saline with Tween-80): 110 % of control | T/C [5]: 122 % of control | T/C [6]: 120 % of control

C=C(C)C(=O)OCC1CO1 (configuration not stated)
T/C [11]: 88 % of control | T/C [12]: 105 % of control

CC(=O)O[C@H]1C(=O)[C@@]2(C)[C@H]([C@H](OC(=O)c3ccccc3)[C@]3(O)C[C@H](OC(=O)[C@H](O)[C@@H](NC(=O)c4ccccc4)c4ccccc4)C(C)=C1C3(C)C)[C@]1(OC(C)=O)CO[C@@H]1C[C@@H]2O
T/C (dose: 25.9 mg/kg/injection, schedule: Q04DX003 (ip), vehicle: Klucel (hydroxypropylcellulose) (HPC)): 93 % of control | T/C (dose: 43.2 mg/kg/injection, schedule: Q04DX003 (ip), vehicle: Klucel (hydroxypropylcellulose) (HPC)): 86 % of control

CC[C@]1(O)C[C@H]2CN(CCc3c([nH]c4ccccc34)[C@@](C(=O)OC)(c3cc4c(cc3OC)N(C=O)[C@H]3[C@@](O)(C(=O)OC)[C@H](OC(C)=O)[C@]5(CC)C=CCN6CC[C@]43[C@@H]65)C2)C1
T/C (dose: 0.36 mg/kg/injection, schedule: Q04DX003 (ip), vehicle: saline): 98 % of control | T/C (dose: 0.6 mg/kg/injection, schedule: Q04DX003 (ip), vehicle: saline): 105 % of control | T/C (dose: 1.0 mg/kg/injection, schedule: Q04DX003 (ip), vehicle: saline): 120 % of control | T/C (dose: 130.0 micrograms/kg/injection, schedule: Q01DX009 (ip), vehicle: saline): 106 % of control | T/C (dose: 216.0 micrograms/kg/injection, schedule: Q01DX009 (ip), vehicle: saline): 111 % of control

Nc1nc2c(c(=O)[nH]1)NC(CCNc1ccc(C(=O)NC(CCC(=O)O)C(=O)O)cc1)CN2 (configuration not stated)
T/C [2]: 111 % of control | T/C [3]: 103 % of control | T/C [13]: 117 % of control

O=C(CCl)N1c2ccccc2Oc2cc3ccccc3cc21
T/C [8]: 107 % of control | T/C [9]: 116 % of control | T/C [10]: 111 % of control

Nc1ncn(C2OC(CO)C(O)C2O)c(=O)n1 (configuration not stated)
T/C (dose: 0.37 mg/kg/injection, schedule: Q01DX009 (ip), vehicle: saline): 100 % of control | T/C (dose: 0.75 mg/kg/injection, schedule: Q01DX009 (ip), vehicle: saline): 113 % of control and 119 % of control | T/C (dose: 1.5 mg/kg/injection, schedule: Q01DX009 (ip), vehicle: saline): 109 % of control and 115 % of control | T/C (dose: 12.5 mg/kg/injection, schedule: Q01DX009 (ip), vehicle: suspension in saline): 115 % of control | T/C (dose: 25.0 mg/kg/injection, schedule: Q01DX009 (ip), vehicle: suspension in saline): 124 % of control | T/C (dose: 400.0 mg/kg/injection, schedule: Q01DX009 (ip), vehicle: suspension in saline): 175 % of control

N=[N+]=CC(=O)OCC(N)C(=O)O (configuration not stated)
T/C (dose: 0.78 mg/kg/injection, schedule: Q01DX009 (ip), vehicle: saline): 98 % of control | T/C (dose: 1.56 mg/kg/injection, schedule: Q01DX009 (ip), vehicle: saline): 103 % of control | T/C (dose: 3.12 mg/kg/injection, schedule: Q01DX009 (ip), vehicle: saline): 100 % of control | T/C [4]: 104 % of control | T/C [1]: 117 % of control

COC1OC(CO)C(O)C(NC(=O)N(C)N=O)C1O (configuration not stated)
T/C [1]: 109 % of control | T/C [2]: 108 % of control and 115 % of control | T/C [13]: 123 % of control | T/C (dose: 200.0 mg/kg/injection, schedule: Q01DX009 (ip), vehicle: saline): 152 % of control

CCS(=O)(=O)OCCCCOS(=O)(=O)CC
T/C (dose: 3.13 mg/kg/injection, schedule: Q01DX009 (ip), vehicle: saline): 99 % of control | T/C [4]: 103 % of control
